“Also recorded” adds a separate entry of the source.
Legend:
MCF-7 cells = test: Anti-proliferation assay in a MCF-7 cell line expressing P450arom (MTT); assay type: cell-based, human
P450arom [1] = target: T1, P450arom (Homo sapiens, UniProt P11511); design: Crystallization and structural investigation of the full-length native P450arom; from tissue; host or cells: human term placenta (aromatase); liver (CPR, bovine or rat); details: previously determined [51]; cited from earlier work
T1 sequence (P11511 1-503): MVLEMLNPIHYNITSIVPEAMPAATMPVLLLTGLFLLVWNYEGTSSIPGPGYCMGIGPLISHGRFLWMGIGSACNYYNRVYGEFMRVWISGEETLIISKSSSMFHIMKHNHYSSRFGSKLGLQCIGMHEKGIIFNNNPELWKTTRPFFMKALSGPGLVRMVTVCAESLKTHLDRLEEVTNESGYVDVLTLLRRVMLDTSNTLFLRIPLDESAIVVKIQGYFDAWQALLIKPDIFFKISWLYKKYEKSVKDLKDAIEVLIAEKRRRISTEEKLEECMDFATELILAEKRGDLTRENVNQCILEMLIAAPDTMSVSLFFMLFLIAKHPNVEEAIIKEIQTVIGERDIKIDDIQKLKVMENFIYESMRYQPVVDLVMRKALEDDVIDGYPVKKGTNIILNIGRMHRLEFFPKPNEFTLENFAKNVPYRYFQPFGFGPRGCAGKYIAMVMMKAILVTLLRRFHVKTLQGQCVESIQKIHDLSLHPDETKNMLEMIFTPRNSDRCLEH

P450arom [2] = target: T1, P450arom; test: Detergent screen: P450arom enzyme activity and time stability; assay type: biochemical; design: Crystallization and structural investigation of the full-length native P450arom; from tissue; host or cells: human term placenta (aromatase); liver (CPR, bovine or rat); details: detergent 1-3 mM, exchanged for Em on HA column
P450arom [3] = target: T1, P450arom; test: Absorption spectrum (Soret band) of P450arom-ligand complexes; design: Crystallization and structural investigation of the full-length native P450arom; from tissue; details: absorption spectrum of the P450arom complex
P450arom [4] = target: T1, P450arom; test: Inhibition of P450arom enzyme activity (3H-water release from [1β-3H, 4-14C] androstenedione, enzyme reconstituted with CPR); assay type: biochemical; design: Crystallization and structural investigation of the full-length native P450arom; from tissue; host or cells: human term placenta (aromatase); liver (CPR, bovine or rat); details: P450arom 20-30 mg/ml, final inhibitor 0.5-1.0 mM, crystallization protocol
Aromatase [5] = target: T2, Aromatase (Homo sapiens, UniProt P11511); test: Assay of enzyme activity (specific activity) of purified aromatase; assay type: biochemical
T2 construct: Crystallization and structural investigation of the full-length native P450arom; from tissue; host or cells: human term placenta (aromatase); liver (CPR, bovine or rat)
T2 sequence (P11511 1-503): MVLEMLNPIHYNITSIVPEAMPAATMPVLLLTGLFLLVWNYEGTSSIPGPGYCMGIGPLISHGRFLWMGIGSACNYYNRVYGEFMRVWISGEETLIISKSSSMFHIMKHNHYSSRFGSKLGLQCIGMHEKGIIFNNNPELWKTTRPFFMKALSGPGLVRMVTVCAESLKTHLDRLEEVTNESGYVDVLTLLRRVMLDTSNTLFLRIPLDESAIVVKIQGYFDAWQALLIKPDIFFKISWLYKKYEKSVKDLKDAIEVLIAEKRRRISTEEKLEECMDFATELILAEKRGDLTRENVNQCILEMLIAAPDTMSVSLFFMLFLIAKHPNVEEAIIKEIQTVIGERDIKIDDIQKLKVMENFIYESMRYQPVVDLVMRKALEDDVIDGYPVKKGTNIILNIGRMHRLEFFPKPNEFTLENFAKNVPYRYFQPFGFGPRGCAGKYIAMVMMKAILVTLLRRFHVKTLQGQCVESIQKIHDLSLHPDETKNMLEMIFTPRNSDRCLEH

Aromatase [6] = test: as above; assay type: biochemical, human; details: in BNM after detergent exchange

For 4-hydroxytamoxifen, which “A-stimulated growth of the MCF-7 cells” value (MCF-7 cells; androstenedione (A) stimulated) is on record?
The value was “decreased”.

With `CCCCCCCCCCCCO[C@@H]1O[C@H](CO)[C@@H](O[C@H]2O[C@H](CO)[C@@H](O)[C@H](O)[C@H]2O)[C@H](O)[C@H]1O` [BDM, n-dodecyl-β-D-maltopyranoside] as the molecule, how does the “effect of detergent on P450arom activity” value (P450arom [1]) read?
Its value is “maintained P450arom activity for weeks at 4 °C”.

With `CCCCCCCCCO[C@@H]1O[C@H](CO)[C@@H](O[C@H]2O[C@H](CO)[C@@H](O)[C@H](O)[C@H]2O)[C@H](O)[C@H]1O` [BNM, n-nonyl-β-D-maltopyranoside] as the molecule, how does the “effect of detergent on enzyme activity and time stability” value (P450arom [2]) read?
The value was “maintained enzyme activity and time stability at least as well as BDM; also recorded: maintained the full P450arom activity”.

For `CCCCCCCCO[C@@H]1O[C@H](CO)[C@@H](O)[C@H](O)[C@H]1O` [BOG, n-octyl-β-D-glucopyranoside], which “effect of detergent on P450arom activity” value (P450arom [1]) is on record?
The value was “destroy P450arom activity rapidly”.

Which “effect of detergent on enzyme activity and time stability” value (P450arom [2]) does the source give for `CCCCCCCCO[C@@H]1O[C@H](CO)[C@@H](O[C@H]2O[C@H](CO)[C@@H](O)[C@H](O)[C@H]2O)[C@H](O)[C@H]1O` [BOM, n-octyl-β-D-maltopyranoside] here?
Its value is “maintained enzyme activity and time stability at least as well as BDM”.

For `CC(C)(C#N)c1cc(Cn2cncn2)cc(C(C)(C)C#N)c1` [anastrozole], which Soret band (P450arom [3]) is on record?
The Soret band was 421 nm.

What does the source list for `C[C@]12CCC(=O)C=C1CC[C@@H]1[C@@H]2CC[C@]2(C)C(=O)CC[C@@H]12` [androstenedione]?
growth of the MCF-7 cells (MCF-7 cells; substrate steroid alone): stimulates the growth of the MCF-7 cells in a concentration-dependent manner; Soret band (P450arom [3]): 394 nm

Which DHEA-stimulated cell growth (MCF-7 cells; DHEA stimulated MCF-7 cells) does the source give for `N#Cc1ccc(C(c2ccc(C#N)cc2)n2cncn2)cc1` [letrozole] here?
Its DHEA-stimulated cell growth is “inhibits the growth of DHEA-stimulated cell growth”.

What about the Soret band (P450arom [3]) of the same molecule?
The Soret band was 421 nm.

What about the “inhibition of P450arom” value (P450arom [4]) of the same molecule?
The value was about 100%.

B1: Aromatase: human cytochrome P450 aromatase purified from term placenta, SEQ ID NO:1 (protein, listed as Homo sapiens)
chain: MVLEMLNPIHYNITSIVPEAMPAATMPVLLLTGLFLLVWNYEGTSSIPGPGYCMGIGPLISHGRFLWMGIGSACNYYNRVYGEFMRVWISGEETLIISKSSSMFHIMKHNHYSSRFGSKLGLQCIGMHEKGIIFNNNPELWKTTRPFFMKALSGPGLVRMVTVCAESLKTHLDRLEEVTNESGYVDVLTLLRRVMLDTSNTLFLRIPLDESAIVVKIQGYFDAWQALLIKPDIFFKISWLYKKYEKSVKDLKDAIEVLIAEKRRRISTEEKLEECMDFATELILAEKRGDLTRENVNQCILEMLIAAPDTMSVSLFFMLFLIAKHPNVEEAIIKEIQTVIGERDIKIDDIQKLKVMENFIYESMRYQPVVDLVMRKALEDDVIDGYPVKKGTNIILNIGRMHRLEFFPKPNEFTLENFAKNVPYRYFQPFGFGPRGCAGKYIAMVMMKAILVTLLRRFHVKTLQGQCVESIQKIHDLSLHPDETKNMLEMIFTPRNSDRCLEH
For B1, which turnover number (Aromatase [5]; calculated) is on record?
The turnover number was about 6 min⁻¹.

What about the specific activity retained (Aromatase [5]; in detergents BNM and BDM, 4° C. for weeks) of the same molecule?
Its specific activity retained is 80-90%.

What about the “specific activity of the purified enzyme” value (Aromatase [5]; typical / over a large number of purifications, androstenedione as substrate) of the same molecule?
The value was 20 to 100 nmol/min/mg.

What about the specific activity (Aromatase [5]; with Em as the detergent) of the same molecule?
Its specific activity is 50 to 100 nmol/min/mg.

What about the specific activity (Aromatase [6]) of the same molecule?
The specific activity was 10 to 50 nmol/min/mg.

B2: Del38arom: amino-terminal trans-membrane domain deleted P450arom, bacterial expression clone (protein, UniProt P11511 39-503, looked up, fragment)
chain: WNYEGTSSIPGPGYCMGIGPLISHGRFLWMGIGSACNYYNRVYGEFMRVWISGEETLIISKSSSMFHIMKHNHYSSRFGSKLGLQCIGMHEKGIIFNNNPELWKTTRPFFMKALSGPGLVRMVTVCAESLKTHLDRLEEVTNESGYVDVLTLLRRVMLDTSNTLFLRIPLDESAIVVKIQGYFDAWQALLIKPDIFFKISWLYKKYEKSVKDLKDAIEVLIAEKRRRISTEEKLEECMDFATELILAEKRGDLTRENVNQCILEMLIAAPDTMSVSLFFMLFLIAKHPNVEEAIIKEIQTVIGERDIKIDDIQKLKVMENFIYESMRYQPVVDLVMRKALEDDVIDGYPVKKGTNIILNIGRMHRLEFFPKPNEFTLENFAKNVPYRYFQPFGFGPRGCAGKYIAMVMMKAILVTLLRRFHVKTLQGQCVESIQKIHDLSLHPDETKNMLEMIFTPRNSDRCLEH
For B2, which specific activity (Aromatase [6]) is on record?
Its specific activity is under 1 nmol/min/mg.
